Some test systems named below: HS 578T breast; 786-0 renal; DU-145 prostate; SNB-19 CNS; HCC-2998 colon; SW-620 colon; NCI-H226 lung; CCRF-CEM leukemia; BT-549 breast; MCF7 breast; SN12C renal; MDA-MB-231 breast; SF-295 CNS; SK-MEL-5 melanoma; MDA-N.
What all share (assay): NCI anticancer screen, dose series, 48 h

Our source for the TGI values is PubChem BioAssay (NCI).

SMILES strings stand for the structures.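 Where inhibition never reached the appropriate level, the endpoint shown equals the highest concentration tested. Otherwise, values were interpolated linearly from a five-concentration, 48-hour dose response in 96-well plates. TGI: concentration producing complete growth inhibition.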

For the molecule `CC(C)=C1C(=O)C[C@]2(C)C[C@H]3O[C@]3(C)CC[C@@H]3O[C@@]3(C)CC[C@@H]12`, the TGI in the test with HS 578T breast, with 786-0 renal, in the test with DU-145 prostate, in the test on SNB-19 CNS, in the test with HCC-2998 colon and in the test with SW-620 colon was more than 50 µM throughout. Also, the TGI in the test on NCI-H226 lung, in the test on CCRF-CEM leukemia, in the test with BT-549 breast, in the test on MCF7 breast, in the test with SN12C renal and in the test on MDA-MB-231 breast was more than 50 µM each time. In addition, in the test with SF-295 CNS, the TGI was more than 50 µM.
Consider `O=C1N(Cl)C(=O)C(c2ccc(Cl)cc2)(c2ccc(Cl)cc2)N1Cl`, for which the TGI in the test on 786-0 renal, with SNB-19 CNS, in the test on HCC-2998 colon, in the test on SK-MEL-5 melanoma, in the test on SW-620 colon and in the test with NCI-H226 lung was more than 100 µM in each case. Besides, the TGI in the test with CCRF-CEM leukemia is 60.9 µM; in the test with SN12C renal it was more than 100 µM; in the test on SF-295 CNS, more than 100 µM.
`Cc1sc(Nc2ccc(Nc3nc(-c4ccccc4)c(C)s3)cc2)nc1-c1ccccc1`: the TGI with HS 578T breast is more than 100 µM; in the test with 786-0 renal it was more than 100 µM; in the test with DU-145 prostate, more than 100 µM; in the test on SNB-19 CNS it was more than 100 µM; in the test with HCC-2998 colon, 50.5 µM; with SK-MEL-5 melanoma it was 66.3 µM. In addition, the TGI is more than 100 µM in the test on SW-620 colon; more than 100 µM with NCI-H226 lung; more than 100 µM in the test on CCRF-CEM leukemia; more than 100 µM in the test with BT-549 breast; 71.5 µM with MCF7 breast; more than 100 µM in the test with SN12C renal. Moreover, the TGI with MDA-MB-231 breast and in the test with SF-295 CNS was more than 100 µM throughout.
Turning to `C=CCC1(O)CC(n2cc(C)c(=O)[nH]c2=O)OC1CO[Si](C)(C)C(C)(C)C` (stereo not given), the TGI in the test on 786-0 renal, in the test on DU-145 prostate, in the test with MDA-N, in the test with SNB-19 CNS, in the test with HCC-2998 colon and with SK-MEL-5 melanoma was more than 100 µM each time. The TGI in the test on SW-620 colon, in the test with NCI-H226 lung, in the test with CCRF-CEM leukemia, with BT-549 breast, in the test with MCF7 breast and in the test on SN12C renal was more than 100 µM throughout. The TGI in the test on MDA-MB-231 breast and in the test on SF-295 CNS was more than 100 µM in each case.
For the molecule `CC1(C)CCc2ccc(OCCC(=O)O)cc2O1`, the TGI in the test with SK-MEL-5 melanoma, in the test on SW-620 colon, in the test with NCI-H226 lung, in the test on CCRF-CEM leukemia, with SN12C renal and in the test on SF-295 CNS was more than 100 µM throughout.
Consider `COc1ccc2c(c1)CC[C@@H]1[C@@H]2CC[C@]2(C)C(=O)/C(=C/c3ccc(N(C)C)cc3)C[C@@H]12`, for which the TGI with 786-0 renal is 80.7 µM; in the test on DU-145 prostate, more than 100 µM; in the test on SNB-19 CNS it was more than 100 µM; in the test with HCC-2998 colon it was more than 100 µM; with SK-MEL-5 melanoma, more than 100 µM; in the test on SW-620 colon it was more than 100 µM. In addition, the TGI is 70.6 µM in the test with BT-549 breast, more than 100 µM in the test with MDA-MB-231 breast and more than 100 µM in the test on SF-295 CNS.
As to `O=[N+]([O-])c1cccc2nc3ccccc3c(NCCCCNc3c4ccccc4nc4cccc([N+](=O)[O-])c34)c12`, the TGI in the test with HS 578T breast worked out at 0.935 µM; in the test with 786-0 renal it was 0.0943 µM; with DU-145 prostate it was 0.133 µM; in the test with SNB-19 CNS it was 0.152 µM; with HCC-2998 colon it was 0.164 µM; in the test on SK-MEL-5 melanoma it was 0.165 µM. In addition, the TGI amounted to 0.174 µM with SW-620 colon; 2.66 µM in the test on NCI-H226 lung; 0.0892 µM in the test on CCRF-CEM leukemia; 1.79 µM in the test on BT-549 breast; 0.412 µM in the test on MCF7 breast; 0.38 µM in the test with SN12C renal. The molecule further yielded a TGI in the test with SF-295 CNS of 1.02 µM.
With `CC(=O)Nc1oc(C)c(C)c1S(=O)(=O)c1ccc(Cl)cc1`, the TGI is 93.6 µM in the test on HS 578T breast; more than 100 µM in the test on 786-0 renal; more than 100 µM in the test with DU-145 prostate; more than 100 µM with SNB-19 CNS; more than 100 µM in the test with HCC-2998 colon; 76.6 µM with SK-MEL-5 melanoma. Further, the TGI in the test on SW-620 colon was more than 100 µM; in the test with NCI-H226 lung it was more than 100 µM; in the test with CCRF-CEM leukemia it was more than 100 µM; in the test with BT-549 breast, 89.3 µM; in the test on MCF7 breast, more than 100 µM; in the test with SF-295 CNS, more than 100 µM.
With `O=C1NC(N/N=C/c2ccccc2)=N/C1=C\c1ccco1`, the TGI in the test on HS 578T breast is 78.3 µM; with 786-0 renal it was 55.6 µM; in the test with DU-145 prostate, more than 100 µM; in the test on SNB-19 CNS, more than 100 µM; in the test on HCC-2998 colon it was more than 100 µM; in the test with SK-MEL-5 melanoma it was more than 100 µM. For the same molecule, the TGI in the test on SW-620 colon was more than 100 µM; in the test with NCI-H226 lung, more than 100 µM; in the test with CCRF-CEM leukemia, more than 100 µM; in the test on BT-549 breast, 70.6 µM; in the test with MCF7 breast it was more than 100 µM; in the test with SN12C renal, more than 100 µM. Moreover, the TGI with MDA-MB-231 breast and in the test with SF-295 CNS was more than 100 µM in each case.
`C=CC[C@H]1O[Si](C(C)(C)C)(C(C)(C)C)[C@H](C)[C@H]1C`: the TGI with 786-0 renal, with MDA-N, in the test on SNB-19 CNS, in the test with HCC-2998 colon, in the test on SK-MEL-5 melanoma and with SW-620 colon was more than 100 µM in each case. Besides, the TGI with NCI-H226 lung, with CCRF-CEM leukemia, in the test with BT-549 breast, with MCF7 breast, in the test on SN12C renal and in the test with MDA-MB-231 breast was more than 100 µM in each case. In the test with SF-295 CNS, the TGI is more than 100 µM.
Regarding `N#Cc1cccc2c1Sc1ccccc1N2`, the TGI in the test on 786-0 renal was 67.2 µM; in the test on DU-145 prostate it was more than 100 µM; with SNB-19 CNS, more than 100 µM; in the test on HCC-2998 colon, more than 100 µM; with SK-MEL-5 melanoma it was 1.72 µM; in the test on SW-620 colon it was more than 100 µM. In addition, the TGI with NCI-H226 lung is more than 100 µM; in the test on CCRF-CEM leukemia it was more than 100 µM; in the test with BT-549 breast, 79.8 µM; in the test with MCF7 breast, more than 100 µM; in the test with SN12C renal, more than 100 µM; in the test with MDA-MB-231 breast, more than 100 µM. The molecule further came in with a TGI with SF-295 CNS of 69.1 µM.
